One experiment has as its system NF-κB. The experiment is described as follows: NF-κB DNA binding of nuclear extracts (TransAM NF-κB kit) from LPS-stimulated RAW 264.7 cells. Format: cell-based, murine. As to conditions: LPS 4 h; MgRIAA 55 and 14 μg/ml, parthenolide 80 μM, LY294002 25 μM. As to the method:
Nuclear extracts were prepared essentially as described by Dignam, et al [Nucl Acids Res 11:1475-1489, (1983)]. […] Cells were then scraped into a clean tube and processed through three cycles of freeze/thaw. The supernatant layer following centrifugation at 10,000×g for 5 min at 4° C. was the cytoplasmic fraction. […] The nuclear extract fraction was collected as the supernatant layer following centrifugation at 10,000×g for […] at 4° C. NF-kB DNA binding of the nuclear extracts was assessed using the TransAM NF-κB kit from Active Motif (Carlsbad, Calif.) as per manufacturer's instructions. […] Protein concentration was measured (Bio-Rad assay) and 10 μg of nuclear protein extracts were assayed in duplicate.

Experiment [1] relates to PGE2 synthesis in LPS-stimulated RAW 264.7 cells. The experiment is described as follows: PGE2 inhibition in LPS-stimulated RAW 264.7 murine macrophages (Example 1). It is filed as cell-based. The following applies: for IC50: Mus musculus, RAW264.7; for Relative Potency: category of anti-inflammatory activity based on IC50.
For experiment [2], the system named is TNFα-treated 3T3-L1 adipocytes. The experiment is described as follows: IL-6 secretion from TNFα-treated 3T3-L1 adipocytes. Format: cell-based, murine. The following applies: Mus musculus, 10 ng TNFα/ml; for inhibition at 1 µg/mL: 1.0 μg/ml.
The test system of experiment [3] is LPS-treated 3T3-L1 adipocytes. As to the kind of experiment: Adiponectin secretion in LPS/3T3-L1 adipocytes. Format: cell-based, murine. The following applies: 100 ng LPS/ml.
The next experiment has as its system 3T3-L1 adipocytes. The experiment is described as follows: Lipogenesis (Oil Red O / BODIPY) in 3T3-L1 adipocytes. It is filed as cell-based, murine. As to conditions: hops compounds 10, 5, 4 or 2 μg/ml, spent hops 50 μg/ml (Example 19).
Experiment [4] has as its system insulin-resistant 3T3-L1 adipocytes. The experiment is described as follows: Adiponectin secretion from insulin-resistant 3T3-L1 adipocytes. Format: cell-based, murine. As to conditions: for Adiponectin/IL-6: insulin-resistant model.
Description: For two days, the cells were allowed grow to reach confluence. […] Twenty-four hours later, the supernatant medium was sampled for adiponectin determination. […] The adiponectin secreted into the medium was quantified using the Mouse Adiponectin Quantikine® Immunoassay kit with no modifications (R&D Systems, Minneapolis, Minn.). […] Substituting {relative adiponectin secretion/[concentration]} for the independent variable v/[S] and {relative adiponectin secretion} for the dependant variable {v}, produced a relationship of the form y=mx+b. Maximum adiponectin secretion relative to the solvent control was estimated from the y-intercept, while the concentration of test material necessary for half maximal adiponectin secretion was computed from the negative value of the slope.
For a further experiment, the system named is COX-2 protein expression. As to the kind of experiment: COX-2 protein expression by Western blot in LPS-stimulated RAW 264.7 cells. Format: cell-based, murine. The following applies: 20 hours LPS, versus DMSO solvent control. On the procedure: Densitometry was performed using Kodak®software.
For orientation: In western blotting, separated proteins are transferred to a membrane and probed.

Where [5] appears, read: arbitrary category of the median inhibitory concentration, read-out: Relative IC50.
Setting [6] is: test material added 90 min before LPS, 18 h, read-out: IC50 (PGE2 inhibition).

Values after ≈ are worked out from the molar mass of the structure shown. Like-named read-outs stand apart in the source and are kept apart here. Marks after values point to notes of the source that are not given here.

Consider `O=c1cc(N2CCOCC2)oc2c(-c3ccccc3)cccc12` [LY294002], for which the “NF-κB DNA binding, in words” value in the experiment on NF-κB is recorded as “modest decrease”.

For `COc1ccc2cc3[n+](cc2c1OC)CCc1cc2c(cc1-3)OCO2` [Berberine], the concentration for half-maximal inhibition (IC50) (in general, the point on the concentration scale where inhibition reaches its midpoint) in experiment [1] is 2 to 7 µg/mL.

In the case of `Cc1c(C)c2c(c(C)c1O)CCC(C)(COc1ccc(CC3SC(=O)NC3=O)cc1)O2` (centres unmarked) [Troglitazone], the inhibition (in general, how much of the control response was suppressed) at 1 µg/mL in experiment [2] came out at 34%. In addition, the “Concentration at maximum stimulation of adiponectin secretion” value in experiment [3] turned out to be 0.625 µg/mL.

Regarding `CC1(C)CC[C@]2(C(=O)O)CC[C@]3(C)C(=CC[C@@H]4[C@@]5(C)CC[C@H](O)C(C)(C)[C@@H]5CC[C@]43C)[C@@H]2C1` [Oleanolic acid, oleanolic acid], the IC50 in experiment [1] (setting [5]) turned out to be 1 µg/mL (≈ 2.19 µM).

Regarding `O=c1c(O)c(-c2ccc(O)cc2O)oc2cc(O)cc(O)c12` [Morin, morin], the IC50 in experiment [1], in experiment [1] (setting [5]) and in experiment [1] (setting [6]) was greater than 12 µg/mL in each case.

As to `O=c1c(-c2ccc(O)cc2)coc2cc(O)cc(O)c12` [Genistein, genistein], the IC50 was 0.3 to 1.7 µg/mL (≈ 1.11 to 6.29 µM) in experiment [1], 1 µg/mL (≈ 3.7 µM) in experiment [1] (setting [5]) and 1.7 µg/mL (≈ 6.29 µM) in experiment [1] (setting [6]). Further, the “Relative Potency” value in experiment [1] was “high”.

With `CC(C)CCC1=C(O)C(C(=O)C(C)C)=C(O)C(CCC(C)C)(CCC(C)C)C1=O` [Hexahydrocolupulone], the “adipogenic response, in words” value in the experiment on 3T3-L1 adipocytes is given as “failed to elicit a lipogenic response greater than the solvent controls”. For the same compound, the Adiponectin/IL-6 is recorded as 1.36# in experiment [4] (25 μg/ml) and 0.60# in experiment [4] (50 μg/ml). Besides, in experiment [4] (of the four doses tested), the “concentration at which maximal adiponectin secretion was observed” value worked out at 12.5 µg/mL.

Turning to `COc1cc(/C=C/C(=O)CC(=O)/C=C/c2ccc(O)c(OC)c2)ccc1O` [Curcumin, curcumin], the half-maximal inhibitory concentration (IC50) in experiment [1] was in the range of 2 to 7 µg/mL (≈ 5.43 to 19 µM); in experiment [1] (setting [5]), 2 to 6 µg/mL (≈ 5.43 to 16.3 µM).

With `CCc1ccc(CCOc2ccc(CC3SC(=O)NC3=O)cc2)nc1` (centres unmarked) [Pioglitazone], the “Adiponectin Index (maximum stimulation)” value in experiment [3] (relative to LPS control) was 1.12*.

Consider `CC(=O)Oc1ccccc1C(=O)O` [Aspirin], for which, in experiment [3], the “% Stimulation of adiponectin secretion (maximum)” value (shortened to “% Stimulation”) is on record as “failed to induce adiponectin secretion”.

Take `C=C1C(=O)O[C@H]2[C@H]1CC/C(C)=C/CC[C@@]1(C)O[C@@H]21` [Parthenolide]: the “reduction of COX-2 protein expression” value in the experiment with COX-2 protein expression is 22.5%. In the experiment with NF-κB, the “NF-κB DNA binding, in words” value is recorded as “significant reduction”.

As for `COc1ccc2c(c1)c(CC(=O)O)c(C)n2C(=O)c1ccc(Cl)cc1` [Indomethacin, indomethacin], the “% Stimulation” value in experiment [3] is 9%.

As for `O=C1C[C@@H](c2ccc(O)cc2)Oc2cc(O)cc(O)c21` [Naringenin, naringenin], the IC50 in experiment [1], in experiment [1] (setting [5]) and in experiment [1] (setting [6]) was greater than 12 µg/mL throughout.

Consider `Cc1ccc(-c2cc(C(F)(F)F)nn2-c2ccc(S(N)(=O)=O)cc2)cc1` [Celecoxib, celecoxib], for which, in experiment [3], the “% Stimulation” value is on record as “failed to induce adiponectin secretion”.

As to `O=c1c(O)c(-c2ccc(O)c(O)c2)oc2cc(O)ccc12` [Fisetin, fisetin], the half-inhibitory concentration (IC50) in experiment [1], in experiment [1] (setting [5]) and in experiment [1] (setting [6]) was greater than 12 µg/mL each time.

On to `O=c1c(O)c(-c2ccc(O)c(O)c2)oc2cc(O)cc(O)c12` [Quercetin], for which the IC50 in experiment [1] is 0.3 to 1.7 µg/mL (≈ 0.993 to 5.62 µM); in experiment [1] (setting [5]), 1 µg/mL (≈ 3.31 µM); in experiment [1] (setting [6]), 0.82 µg/mL (≈ 2.71 µM). Further, the “Relative Potency” value in experiment [1] was “high”.

For the compound `O=c1c(O)c(-c2ccccc2)oc2cc(O)cc(O)c12` [Galangin, galangin], the figures for the 50% inhibitory concentration (IC50) in experiment [1], in experiment [1] (setting [5]) and in experiment [1] (setting [6]) were 0.3 to 1.7 µg/mL (≈ 1.11 to 6.29 µM), 1 µg/mL (≈ 3.7 µM) and 1.4 µg/mL (≈ 5.18 µM), respectively. The “Relative Potency” value in experiment [1] is “high”.

`CC(C)Oc1ccc2c(=O)c(-c3ccccc3)coc2c1` [Ipriflavone, ipriflavone]: the half-maximal inhibitory concentration (IC50) in experiment [1] was 2 to 7 µg/mL (≈ 7.13 to 25 µM); in experiment [1] (setting [5]), 2 to 6 µg/mL (≈ 7.13 to 21.4 µM); in experiment [1] (setting [6]), 6.3 µg/mL (≈ 22.5 µM).

As for `O=c1cc(-c2ccc(O)c(O)c2)oc2cc(O)cc(O)c12` [Luteolin, luteolin], the figures for the IC50 in experiment [1], in experiment [1] (setting [5]) and in experiment [1] (setting [6]) were 2 to 7 µg/mL (≈ 6.99 to 24.5 µM), 2 to 6 µg/mL (≈ 6.99 to 21 µM) and 3.9 µg/mL (≈ 13.6 µM), respectively.

Take `O=C(O)c1ccccc1O` [Salicylic acid, salicylic acid]: in experiment [3], the “% Stimulation” value is listed as “failed to induce adiponectin secretion”.

`CN(C)C(=N)N=C(N)N` [Metformin]: the inhibition at 1 µg/mL in experiment [2] was 9%. Moreover, the inhibition at 5 µg/mL in experiment [2] (5.0 μg/ml) was determined as 4%. The compound also returned an inhibition at 10 µg/mL in experiment [2] (10 μg/ml) of 22%. This compound showed an inhibition at 50 µg/mL in experiment [2] (50 μg/ml) of 22%.

In experiment [1], `Oc1ccc(C=Cc2cc(O)cc(O)c2)cc1` [Resveratrol, resveratrol] gave a half-maximal inhibitory concentration (IC50) of 2 to 7 µg/mL (≈ 8.76 to 30.7 µM).

For the compound `O=c1cc(-c2ccc(O)cc2)oc2cc(O)cc(O)c12` [Apigenin, apigenin], the half-inhibitory concentration (IC50) in experiment [1] is 2 to 7 µg/mL (≈ 7.4 to 25.9 µM); in experiment [1] (setting [5]), 2 to 6 µg/mL (≈ 7.4 to 22.2 µM); in experiment [1] (setting [6]), 2.8 µg/mL (≈ 10.4 µM).

Source of the values: patent publication US20130064913A1, “ANTI-INFLAMMATORY BOTANICAL PRODUCTS FOR THE TREATMENT OF METABOLIC SYNDROME AND DIABETES” (Metaproteomics, LLC, priority 2001, published 2013).
